# From article PMC10794345, “Analysis of vascular disruption in zebrafish embryos as an endpoint to predict developmental toxicity” (Archives of Toxicology, 2023)
# Entries after “also recorded” stand apart in the source; their conditions may differ. Where two headings read alike, the source gives them in different places.
# Tests used:
# [1] = system: zebrafish embryos (wild-type strain OBI/WIK); assay: ISV inhibition (angiogenesis) by video subtraction in wildtype zebrafish embryos; format: in vivo, zebrafish (D. rerio); settings: for IC50: Danio rerio, ± 95% confidence intervals, read-out: IC50 of ISV inhibition
# Method: A wild-type adult zebrafish strain (D. rerio, strain OBI/WIK, generation F3), originating from an in-house cross of zebrafish strains UFZ-OBI and WIK, was used for all experiments. The Tg(kdr:EGFP) strain was kindly provided by the University of Jena. Fish were fed twice daily with dry food (SDS-400, Special Diets Services, Essex England) and once daily with Artemia sp. […] Spawning trays were inserted 4–6 h before the end of the light cycle. The following day, spawning was initiated by the onset of light and eggs were collected within 1 h. Exposure in all experiment was ceased at 96 hpf.
# (§1) Exposure was conducted in rectangular 96-well microplates (Clear Polystyrene, flat bottom, Uniplate, Whatman, GE Healthcare) covered by a lid with a test volume of 400 µL of exposure media. For each replicate one embryo per well and 16 wells per concentration were assessed. Experiments were performed with at least two replicates on independent days and breeding.
# To determine the number of ISVs in the trunk region, high-resolution images of 96 hpf-old zebrafish embryos were recorded using a Leica DM6B-Z microscope (Leica, Wetzlar, Germany) attached to the VAST imaging system, and a camera (Leica DFC9000 sCMOS, objective: HC APO L U-V-I 20x/0.50 WATER UV). A series of 20 images with a frame rate of 20 images per second and a 2 × 2 pixel binning was recorded in autofocus mode for each embryo.
# A series of MATLAB scripts (Supplement File ‘Workflow 3.m’ and ‘Workflow 4.m’) was used to convert the image series into a video and to visualize the blood vessel by applying a video subtraction approach (Figure SI1). Briefly, each video frame was subtracted from the average image of the whole image sequence and converted to a binary image by applying a Gaussian blur (σ = 5) and a threshold of 0.025 to obtain optimal contrast in binary images. Subsequently, the sum of all binary images was calculated. Due to movement of the blood cells the subtraction approach removed all parts from the image which were not moving resulting in an image of the blood vessels. This binary image of the blood vessel network in the zebrafish embryo tail was then processed with the FishInspector annotation software (version 1.70). […] The number of ISVs was obtained by application of a KNIME workflow to FishInspector annotation files. Subsequently concentration–response analysis was conducted using a KNIME workflow. The coefficient of variation (CV) of controls was calculated for both the subtraction and the fluorescence-based method by dividing the standard deviation of individual embryos with the control mean: CVControl=SD/Mean.
# The assessment of lethality and morphological features was based on the percentage of embryos affected. Therefore, morphological endpoints were dichotomized, i.e. feature metrics were converted to the percentage of embryos deviating from controls. An embryo was considered to deviate when it was outside 1.5-fold of the standard deviation range of the mean of the control group. The control mean was determined by pooling control embryos across all experiments (n = 160) (available at git.ufz.de). For heart rate and angiogenesis (number of ISVs) the analysis was based on normalized values, i.e. for each experiment the values of the treatment were divided by the control value. The experiments were designed to calculate effect concentrations based on modelled curve fits. Different concentrations were used in at least two independent replicates, with means of each replicate based on the exposure of 16 different embryos per concentrations. Effect concentration were only modeled when three conditions were met. […] (2) The Akaike information criterion (AIC) for the log-logistic model was lower than the AIC for a linear model with slope 0 (lower p values for the letter would indicate that there is no trend in the data).
# [2] = Lethality of zebrafish embryos at 96 hpf; format: in vivo, zebrafish (D. rerio); settings: OBI/WIK wild-type, zebrafish, in vivo, other: immersion of embryos in exposure media, 3–96 hpf exposure; ± 95% confidence intervals
# Method: as §1, with “Fertilized and normally developed embryos were selected according to Kimmel et al. ([1995]) with a dissection microscope (Olympus SZx7-ILLT) at 1 hpf. Depending on experiment, exposure was started within 2–3 h post-fertilization (16–128 cell stages) or at 24 hpf. Exposure” for “Exposure”
# (§2) Concentration–response curves were fitted for lethality, heart rate, morphological features as previously described (Teixidó et al. [2019], [2022]). The assessment of lethality and morphological features was based on the percentage of embryos affected. Therefore, morphological endpoints were dichotomized, i.e. feature metrics were converted to the percentage of embryos deviating from controls. An embryo was considered to deviate when it was outside 1.5-fold of the standard deviation range of the mean of the control group. The control mean was determined by pooling control embryos across all experiments (n = 160) (available at git.ufz.de). For heart rate and angiogenesis (number of ISVs) the analysis was based on normalized values, i.e. for each experiment the values of the treatment were divided by the control value. The experiments were designed to calculate effect concentrations based on modelled curve fits. Different concentrations were used in at least two independent replicates, with means of each replicate based on the exposure of 16 different embryos per concentrations. Effect concentration were only modeled when three conditions were met. (1) The Tukey trend test based on the R package "tukeytrend" (Schaarschmidt et al. [2022]) was deriving a maximum p-value of 0.05. (2) The Akaike information criterion (AIC) for the log-logistic model was lower than the AIC for a linear model with slope 0 (lower p values for the letter would indicate that there is no trend in the data). (3) We calculated effect concentrations only if at least 30% of embryos for that endpoint were affected in at least one exposure concentration of (for normalized data) a reduction or increase by 30% was observed.
# [3] = system: zebrafish embryos (wild-type strain OBI/WIK); assay: Lethality of zebrafish embryos at 96 hpf; format: in vivo, zebrafish (D. rerio); settings: embryos exposed from 24 hpf, compared to exposure from 3 hpf
# Method: as §1, with “Fertilized and normally developed embryos were selected according to Kimmel et al. ([1995]) with a dissection microscope (Olympus SZx7-ILLT) at 1 hpf. Depending on experiment, exposure was started within 2–3 h post-fertilization (16–128 cell stages) or at 24 hpf. Exposure” for “Exposure”
# as §2
# [4] = system: early life stage zebrafish; settings: ref Tal et al. [2014]; read-out: EC50 for decreased ISV length; cited from earlier work
# [5] = system: zebrafish embryos (wild-type strain OBI/WIK); assay: Morphological features and heart rate by automated imaging (VAST/FishInspector) at 96 hpf; format: in vivo, zebrafish (D. rerio); settings: 96 hpf; listed as VPA
# Method: Automated imaging of zebrafish developmental phenotypes was conducted with the VAST BioImager (Union Biometrica, Gees, Belgium (Pardo-Martin et al. [2010]; Pulak [2016])) equipped with a large particle sampler (LP sampler, Union Biometrica). Lateral and dorsoventral images were obtained at 10 µm resolution at 96 hpf. Prior to imaging, all embryos were anesthetized by adding 20 µl tricaine solution ([…] tricaine, TRIS 26 mM, pH 7.5 ± 0.1) to each well of the microplate. Images were processed with an amended version (1.70, available via https://codebase.helmholtz.cloud/ufz/tb3-cite/biotox/FishInspector) of the FishInspector imaging software (Teixidó et al. [2019]). The FishInspector software allows to automatically annotate morphological features including body contour, eye, lower mouth tip, pericard, otoliths, notochord, swimbladder, and yolk and to calculate diverse metrics such as feature length, size, curvature indices, or angle between feature-connecting lines. In contrast to the previously published version, FishInspector 1.70 detects morphological features based on a deep learning approach using the Matlab Neural Network Toolbox and Matlab Image Processing Toolbox (Mathworks, Natick, […]). In addition, metric calculation was included into the software, and meta information such as test compound, exposure window or test concentration was associated to each image using a microplate layout file. To facilitate training of the models, two additional programs were generated in Matlab including FishTrainer 0.9 (for training of semantic segmentation models of structural features) and FishClassificator 0.9 (for training of position classes to be used in automated flipping of images) available via same repository as FishInspector software. For image training, image size was adjusted to 450 × 300 pixel to reduce computing time. This resolution was sufficient to detect the selected features (data not shown). For training of the deep learning models, approximately 3000 previously annotated images (Teixidó et al. [2022]) were used. The automated annotations were corrected by the user in the event that they were not adequately detecting visible structures. User-bias was avoided by a blinded assessment of images.
# FishInspector provided a JSON file corresponding to each image file containing the coordinates of all features and the applied smoothing factor. All images and videos used for this publication can be found at the BioImage Archive S-BIAD954 (https://www.ebi.ac.uk/biostudies/bioimages/studies/S-BIAD954). For each image, a csv file was generated containing calculated metrics. The software automatically provides a summary table containing metrics r of individual embryos. […] The analyzed file includes endpoint names based on the FishInspector software. […]
Compound,IC50 ([1]; 3–96 hpf exposure) [nM],IC50 ([1]; 24–96 hpf exposure) [nM],LC50 [2] [nM],Mortality (in words) [3],EC50 [4] [nM],"Effect on ISV formation (in words) ([1]; tested concentration range up to 800 µM, negative control, listed as VPA)",Morphological malformations (in words) [5]
Clc1ccc(Nc2nnc(Cc3ccncc3)c3ccccc23)cc1 [PTK787],90 ± 40,140 ± 30,680 ± 510,no,170,–,–
CCCC(CCC)C(=O)O [Valproic acid],–,–,–,–,–,No effect; also recorded: no inhibition of ISVs formation was observed,craniofacial malformations were observed; also recorded: changes in head and jaw structures
